{
  "source": "patent US20110287494A1",
  "about": "“PROCESS FOR PRODUCTION OF OPTICALLY ACTIVE AMINE DERIVATIVE” (Daicel Chemical Industries Ltd, priority 2008, published 2011)",
  "molecules": {"B1": {"name": "Q1EQE0: putative protein of Streptomyces kanamyceticus, SEQ ID NO: 17, imine reductase homologue (protein, listed as Streptomyces kanamyceticus)", "chain": "MPDNPSTKGRMMRNQQAEHTPVTVIGLGLMGQALAGAFLGAGHPTTVWNRTAAKAEPLVARGAKSAGSVAEAVAASPLVVVCVSDYDAVHALLDPLDGTALQGRTLVNLTSGTSAQARERAAWADGRGADYLDGAILAGPAAIGTADAVVLLSGPRSAFDPHASALGGLGAGTTYLGADHGLASLYDAAGLVMMWSILNGFLQGAALLGTAGVDATTFAPFITQGIGTVADWLPGYARQIDDGAYPADDAAIDTHLATMEHLIHESEFLGVNAELPRFIKALADRAVADGHGGSGYPALIEQFRTHSGK"}, "B2": {"name": "imine reductase purified from GF3587: NADPH-dependent imine reductase purified from Streptomyces sp. GF3587, amino acid sequence SEQ ID NO: 6 (protein)", "chain": "MGDNRTPVTVIGLGLMGQALAAAFLEAGHTTTVWNRSAGKAEQLVSQGAVQAATPADAVAASELVVVCLSTYDNMHDVIGSLGESLRGKVIVNLTSGSSDQGRETAAWAEKQGVEYLDGAIMITPPGIGTETAVLFYAGTQSVFEKYEPALKLLGGGTTYLGTDHGMPALYDVSLLGLMWGTLNSFLHGVAVVETAGVGAQQFLPWAHMWLEAIKMFTADYAAQIDAGDGKFPANDATLETHLAALKHLVHESEALGIDAELPKYSEALMERVISQGHAKNSYAAVLKAFRKPSE", "modifications": "Streptomyces sp. GF3587"}},
  "key": {"[1]": {"system": "imine reductase purified from GF3587", "experiment": "Substrate specificity of imine reductase purified from GF3587 (decrease of NADPH absorbance at 340 nm)", "assay_type": "biochemical, Streptomyces sp. GF3587", "details": "for Relative Activity: 2-MPN = 100; for level of activity of reducing the compound, activity of reducing 2-methyl-1-pyrroline taken as 100: relative to 2-MPN = 100", "protocol": "To assess the substrate specificity of the imine reductase purified from GF3587, the activities of the enzyme towards the compounds listed in Table 4 were compared.\nOne ml of reaction mixtures having the composition described below were incubated at […]. The reaction mixtures were assayed to determine the decrease in absorbance (340 nm) of NADPH due to the generation of (R)-2-methylpyrrolidine. An imine reductase solution (2.04 U/ml) was added to reaction solutions containing each substrate compound shown in Table 4 to initiate the reaction. The absorbance of each reaction solution was determined at 340 nm after two minutes of incubation.\nThe relative activity shown in the table is defined as relative activity when the enzymatic activity on […] (2-MPN) is taken as 100."}, "[2]": {"system": "imine reductase responsible for the reduction of 2-methyl-1-pyrroline (crude enzyme solution)", "experiment": "Coenzyme dependency of 2-methyl-1-pyrroline reduction by crude enzyme solution", "assay_type": "biochemical, Streptomyces sp. GF3587", "details": "10 mM coenzyme, 10 mM 2-methyl-1-pyrroline, pH 7.0, 30° C.", "protocol": "(§1) The cells of Streptomyces sp. GF3587 were cultured according to Example 1, and then crushed with glass beads. A crude enzyme solution was prepared by removing intact microbial cells and cell debris by centrifugation. 100 μl of the crude enzyme solution was added to 100 mM phosphate buffer (pH 7.0) containing 10 mM 2-methyl-1-pyrroline and 10 mM NADH or NADPH. During incubation of the mixture at 30° C., absorbance was measured at 340 nm to monitor the decrease of NAD(P)H. The enzymatic activity was determined by this assay."}, "[3]": {"experiment": "Imine-reducing activity of microbial cell extracts of recombinant E. coli JM109", "assay_type": "biochemical", "details": "protein expressed in E. coli", "protocol": "as §1\nThe E. coli JM109 strain that had been transformed with an imine reductase expression plasmid pSUSRIR1 was cultured in an ampicillin-containing liquid LB medium at 30° C. overnight. After adding 0.1 mM IPTG, the cells were further cultured for four hours.\nThe microbial cells were harvested by centrifugation, and then suspended in 100 mM potassium phosphate buffer (pH 7.0) containing 1 mM DTT. The microbial cells were crushed in Sealed-Type Ultrasonic Cell Disruptor UCD-200™ (Cosmo Bio). After centrifugation, the supernatant was collected as microbial cell extract. […] After adding 0.1 mM IPTG the cells were further cultured for four hours. Using the same method, the microbial cells were also crushed to prepare microbial cell extract.\nEach microbial cell extract was assayed for its imine-reducing activity towards 2-methyl-1-pyrroline. […]"}, "[4]": {"experiment": "Optimal pH of imine reductase", "assay_type": "biochemical, Streptomyces sp. GF3587", "details": "30° C.", "protocol": "Furthermore, the imine reductase purified from GF3587 was tested for its optimal pH. The reaction was started by adding an imine reductase (6.82 U/ml) solution to reaction mixtures having the same composition as shown in (1), except that various types of buffer agents were added. The mixtures were incubated at 30° C. for two minutes. The buffers used in this experiment and their pH are listed below.\n100 mM citrate buffer: pH 3 to 6\n100 mM sodium acetate buffer: pH 4 to 5.5\n100 mM potassium phosphate buffer: pH 6 to 8\n100 mM Tris-HCl buffer: pH 7.5 to 9\n100 mM glycine-sodium hydroxide buffer: pH 9 to 11\nThe reaction solutions were assayed to determine the decreases in absorbance (340 nm) of NADPH due to the generation of (R)-2-methylpyrrolidine. […] Furthermore, 80% or more of the maximal activity was retained at pH 6.0 to 7.5."}, "[5]": {"experiment": "Optimal temperature of imine reductase", "assay_type": "biochemical, Streptomyces sp. GF3587", "details": "pH 7.0, 10 to 70° C. tested", "protocol": "The imine reductase purified from GF3587 was tested for its optimal temperature. 1 ml of reaction solution having the composition described below were incubated at 10 to 70° C. to measure the decrease of absorbance (340 nm) of NADPH due to the generation of (R)-2-methylpyrrolidine. After the reaction solutions were pre-incubated at each temperature for five minutes, an imine reductase solution (12.3 U/ml) was added thereto to initiate the reaction. After two minutes, the absorbance of the reaction solutions was measured at 340 nm. The amount of imine reductase that catalyzes the decrease (oxidation) of 1 μmol of NADPH per minute when incubated at 30° C. in the reaction solution having the composition described below is defined as 1 U. The result is shown in FIG. 7."}},
  "note": "Entries after “also recorded” stand apart in the source; their conditions may differ.",
  "data": [
    {"molecule": "C1=NCCCN1", "note": "[1,4,5,6-Tetrahydropyrimidine]", "values": [
      {"measurement": "Relative Activity", "setting": "[1]; substrate 10 mM", "result": 0}
    ]},
    {"molecule": "CC1=NCCC1", "note": "[2-Methyl-1-pyrroline (2-MPN), 2-Methyl-1-pyrroline]", "values": [
      {"measurement": "level of activity of reducing the compound, activity of reducing 2-methyl-1-pyrroline taken as 100", "setting": "[1]", "result": 100, "unit": "%"},
      {"measurement": "enzymatic activity corresponding to relative activity 100", "setting": "[1]; substrate 10 mM", "result": 2.04, "unit": "U/mL"},
      {"measurement": "Relative Activity", "setting": "[1]; substrate 10 mM", "result": 100}
    ]},
    {"molecule": "Cc1ccco1", "note": "[2-Methylfuran]", "values": [
      {"measurement": "Relative Activity", "setting": "[1]; substrate 10 mM", "result": 0}
    ]},
    {"molecule": "Cc1ncc[nH]1", "note": "[2-Methylimidazole]", "values": [
      {"measurement": "Relative Activity", "setting": "[1]; substrate 10 mM", "result": 0}
    ]},
    {"molecule": "Cc1cnccn1", "note": "[2-Methylpyrazine]", "values": [
      {"measurement": "Relative Activity", "setting": "[1]; substrate 10 mM", "result": 0}
    ]},
    {"molecule": "Cc1ncccn1", "note": "[2-Methylpyrimidine]", "values": [
      {"measurement": "Relative Activity", "setting": "[1]; substrate 10 mM", "result": 0}
    ]},
    {"molecule": "Cc1nccs1", "note": "[2-Methylthiazole]", "values": [
      {"measurement": "Relative Activity", "setting": "[1]; substrate 10 mM", "result": 0}
    ]},
    {"molecule": "Cc1cccs1", "note": "[2-Methylthiophene]", "values": [
      {"measurement": "Relative Activity", "setting": "[1]; substrate 5 mM", "result": 0}
    ]},
    {"molecule": "CC(=NO)c1ccccc1", "note": "[Acetophenone oxime]", "values": [
      {"measurement": "Relative Activity", "setting": "[1]; substrate 1 mM", "result": 0}
    ]},
    {"molecule": "Nc1nc2c(c(=O)[nH]1)N=C(CNc1ccc(C(=O)N[C@@H](CCC(=O)O)C(=O)O)cc1)CN2", "note": "[Dihydrofolic acid]", "values": [
      {"measurement": "level of activity of reducing the compound, activity of reducing 2-methyl-1-pyrroline taken as 100", "setting": "[1]", "result": 7.6, "unit": "%"},
      {"measurement": "Relative Activity", "setting": "[1]; substrate 0.05 mM", "result": 7.6}
    ]},
    {"molecule": "C/C(=N\\c1ccccc1)c1ccccc1", "note": "[N-((E/Z)-N-(1-phenylethylidene)aniline]", "values": [
      {"measurement": "level of activity of reducing the compound, activity of reducing 2-methyl-1-pyrroline taken as 100", "setting": "[1]", "result": 29, "unit": "%"},
      {"measurement": "Relative Activity", "setting": "[1]; substrate 25 mM", "result": 29}
    ]},
    {"molecule": "C(=NCc1ccccc1)c1ccccc1", "note": "[N-Benzylidenebenzylamine]", "values": [
      {"measurement": "Relative Activity", "setting": "[1]; substrate 10 mM", "result": 30}
    ]},
    {"molecule": "NC(=O)C1=CN([C@@H]2O[C@H](COP(=O)(O)OP(=O)(O)OC[C@H]3O[C@@H](n4cnc5c(N)ncnc54)[C@H](O)[C@@H]3O)[C@@H](O)[C@H]2O)C=CC1", "note": "[NADH]", "values": [
      {"measurement": "activity with the coenzyme, activity with NADPH taken as 100%", "setting": "[2]", "result": 7, "unit": "%"}
    ]},
    {"molecule": "NC(=O)C1=CN([C@@H]2O[C@H](COP(=O)(O)OP(=O)(O)OC[C@H]3O[C@@H](n4cnc5c(N)ncnc54)[C@H](OP(=O)(O)O)[C@@H]3O)[C@@H](O)[C@H]2O)C=CC1", "note": "[NADPH, reduced nicotinamide adenine dinucleotide phosphate]", "values": [
      {"measurement": "activity with the coenzyme, activity with NADPH taken as 100%", "setting": "[2]", "result": 100, "unit": "%"}
    ]},
    {"molecule": "B1", "values": [
      {"measurement": "imine-reducing activity in words", "setting": "[3]", "result": "exhibited the imine-reducing activity; also recorded: had imine-reducing activity"}
    ]},
    {"molecule": "B2", "values": [
      {"measurement": "optimal pH", "setting": "[4]", "result": 6.5},
      {"measurement": "optimal temperature", "setting": "[5]", "result": 50, "unit": "°C"}
    ]}
  ]
}
